Assay results taken from the NIST ThermoML archive (doi:10.1016/j.fluid.2011.06.012).
Numbers after ± are expanded uncertainties.

Key:
[1] = Molar enthalpy of transition or fusion; conditions: DSC

CCCC[N+]1(C)CCCC1.N#C[S-] [1-butyl-1-methylpyrrolidinium thiocyanate]
[1]
Conditions	Molar enthalpy of transition or fusion [kJ/mol]
Crystal 1	2.06 ± 0.18
Crystal 2	8.68 ± 0.27

298.15 K, 101.33 kPa, Liquid
Conditions	mass density [kg/m3]	viscosity [mPa·s]
Cone and plate viscometry	–	109.46 ± 2.2
Vibrating tube method	1024.77 ± 2.2	–

Conditions	Normal melting temperature [°C]	Triple point temperature [K]
Crystal 1, DTA	22.2 ± 0.9	–
Crystal 2, DTA	–	245.3 ± 0.4
